In paper PMC8807399, “Synthesis, Characterization, and in vivo Evaluation of a Novel Potent Autotaxin-Inhibitor” (Frontiers in Pharmacology, 2022):

What was measured:
[1] = target: T1, Histamine H2 receptor (Homo sapiens, UniProt P25021); test: Off-target screen Histamine H2; type: binding; settings: 10 µM; single point, duplicates
T1 construct: purchased Eurofins CEREP SA

[2] = target: T2, Histamine H3 receptor (Homo sapiens, UniProt Q9Y5N1); test: Off-target screen Histamine H3; type: binding; settings: 10 µM; single point, duplicates
T2 construct: purchased Eurofins CEREP SA

[3] = target: T3, LPA1 receptor (Homo sapiens, UniProt Q92633); test: Off-target screen LPA1 receptor; settings: 10 µM; single point, duplicates
T3 construct: purchased Eurofins CEREP SA

[4] = target: T4, Muscarininc receptor M4 (Homo sapiens, UniProt P08173); test: Off-target screen Muscarinic M4; type: binding; settings: 10 µM; single point, duplicates
T4 construct: purchased Eurofins CEREP SA

[5] = target: T5, Histamine H1 receptor (Homo sapiens, UniProt P35367); test: Off-target screen Histamine H1; type: binding; settings: 10 µM; single point, duplicates
T5 construct: purchased Eurofins CEREP SA

[6] = target: T6, S1P1 (Homo sapiens, UniProt P21453); test: Off-target screen S1P1, antagonist mode; type: cell-based; settings: 10 µM, single point, duplicates
T6 construct: purchased Eurofins CEREP SA

[7] = target: T7, Serotonin transporter (Homo sapiens, UniProt P31645); test: Off-target screen Serotonin transporter; type: binding; settings: 10 µM; single point, duplicates
T7 construct: purchased Eurofins CEREP SA

[8] = target: T8, ACE (Homo sapiens, UniProt P12821); test: Off-target screen ACE; type: biochemical; settings: 10 µM; single point, duplicates
T8 construct: purchased Eurofins CEREP SA

[9] = target: T9, LPA2 receptor (Homo sapiens, UniProt Q9HBW0); test: Off-target screen LPA2 receptor, antagonist mode; type: cell-based; settings: 10 µM, single point, duplicates
T9 construct: purchased Eurofins CEREP SA

[10] = target: T10, CDK2 (Homo sapiens, UniProt P24941); test: Off-target screen CDK2; type: biochemical; settings: 10 µM; single point, duplicates
T10 construct: purchased Eurofins CEREP SA

[11] = target: T11, Beta1-adrenoreceptor (Homo sapiens, UniProt P08588); test: Off-target screen Beta1-adrenoreceptor; type: binding; settings: 10 µM; single point, duplicates
T11 construct: purchased Eurofins CEREP SA

[12] = target: T12, S1P3 (Homo sapiens, UniProt Q99500); test: Off-target screen S1P3, agonist mode; type: cell-based; settings: 10 µM, single point, duplicates
T12 construct: purchased Eurofins CEREP SA

[13] = target: T12, S1P3; test: Off-target screen S1P3, antagonist mode; type: cell-based; settings: 10 µM, single point, duplicates
[14] = Lipophilicity (LogD, octanol/buffer); type: physicochemical; settings: 1-octanol / 25 mM phosphate buffer; pH 7.4, octanol/25 mM phosphate buffer
Description: The experiment started with the accurate coating of the hydrophobic layer (0.45 µm PVDF membranes), which was fixed on the bottom of each DIFI©-tube (Weidmann Medical Technology AG, Rapperswil, Switzerland). The coated membranes were then connected to a 96-well plate which has been prefilled with exactly 150 µl of the selected aqueous buffer solution (25 mM phosphate buffer, pH 7.4). The buffer solution contains already the compound of interest with a maximum starting concentration of 85 µM. To expand the measurement range down to logD = −0.5 and up to logD = +4, it is necessary to carry out the procedure at two different octanol/water ratios: One with an excess of octanol for hydrophilic compounds (logD < 1) and one with a low volume of octanol for the lipophilic compounds (logD > 1). Therefore, parts of the DIFI©-tubes were filled with 15 µl 1-octanol and another part with 1 µl 1-octanol. The resulting sandwich guarantees that the membrane was completely dipped in the buffer solution. The plate was then sealed and shaken for 12 h at room temperature (23°C). During this time, the substance is distributed between the layer, the octanol, and the buffer solution. After having reached a distribution equilibrium, the DIFI©-tubes were easily disassembled from the top of the 96-well plate, so that the remaining sample concentration in the aqueous phase could be analyzed by LC/MS.

[15] = target: T13, Somatostatin receptor 4 (Homo sapiens, UniProt P31391); test: Off-target screen Somatostatin receptor 4; type: binding; settings: 10 µM; single point, duplicates
T13 construct: purchased Eurofins CEREP SA

[16] = target: T14, Xanthine oxidase (Bos taurus, UniProt P80457); test: Off-target screen Xanthine oxidase; type: biochemical, b; settings: 10 µM; single point, duplicates
T14 construct: purchased Eurofins CEREP SA

[17] = target: T15, kappa opioid receptor (Rattus norvegicus, UniProt P34975); test: Off-target screen kappa opioid receptor; type: binding; settings: 10 µM; single point, duplicates
T15 construct: purchased Eurofins CEREP SA

[18] = Glutathione addition screening; type: in vitro ADME; settings: human liver microsomes + NADPH + GSH
Description: All sample handling was performed based on a 96-well plate format using an automated pipetting system. The test compounds, positive controls (diclofenac, troglitazone, nefazodone, 4-[[1-(4-fluorophenyl)-2-methyl-1H-imidazol-4-yl]ethynyl]-2-methylpyridine) and solvent control (DMSO) were incubated with human liver microsomes supplemented with NADPH and reduced GSH. Stable GSH conjugates whose production can be assumed to be the result of chemically reactive metabolites were detected using a quadrupole time of flight mass spectrometer run in untargeted full scan accurate mass MSE mode (Waters Xevo G1 QTOFMSE; Waters GmbH, Eschborn, Germany). This generic GSH adduct detection method and the assay workflow are taking advantage of the specific fragmentation behavior of the peptide moiety upon collision induced dissociation of GSH adducts and so are largely independent of the conjugate (“X”) itself.

[19] = target: T16, LPA3 receptor (Homo sapiens, UniProt Q9UBY5); test: Off-target screen LPA3 receptor, antagonist mode; type: cell-based; settings: 10 µM, single point, duplicates
T16 construct: purchased Eurofins CEREP SA

[20] = target: T17, Neprilysin (neutral endopeptidase) (Homo sapiens, UniProt P08473); test: Off-target screen Neprilysin; type: biochemical; settings: 10 µM; single point, duplicates
T17 construct: purchased Eurofins CEREP SA

T12 sequence (Q99500 whole entry): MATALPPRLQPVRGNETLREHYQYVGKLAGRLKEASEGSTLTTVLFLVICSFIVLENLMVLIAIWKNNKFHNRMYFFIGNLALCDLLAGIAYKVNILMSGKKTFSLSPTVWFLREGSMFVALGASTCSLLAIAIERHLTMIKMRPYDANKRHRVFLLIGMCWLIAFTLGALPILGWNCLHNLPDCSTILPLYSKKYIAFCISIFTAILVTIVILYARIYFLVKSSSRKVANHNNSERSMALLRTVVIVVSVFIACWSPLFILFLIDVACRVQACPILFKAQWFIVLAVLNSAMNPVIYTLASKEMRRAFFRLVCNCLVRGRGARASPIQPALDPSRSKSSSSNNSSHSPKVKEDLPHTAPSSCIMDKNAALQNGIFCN
T5 sequence (P35367 whole entry): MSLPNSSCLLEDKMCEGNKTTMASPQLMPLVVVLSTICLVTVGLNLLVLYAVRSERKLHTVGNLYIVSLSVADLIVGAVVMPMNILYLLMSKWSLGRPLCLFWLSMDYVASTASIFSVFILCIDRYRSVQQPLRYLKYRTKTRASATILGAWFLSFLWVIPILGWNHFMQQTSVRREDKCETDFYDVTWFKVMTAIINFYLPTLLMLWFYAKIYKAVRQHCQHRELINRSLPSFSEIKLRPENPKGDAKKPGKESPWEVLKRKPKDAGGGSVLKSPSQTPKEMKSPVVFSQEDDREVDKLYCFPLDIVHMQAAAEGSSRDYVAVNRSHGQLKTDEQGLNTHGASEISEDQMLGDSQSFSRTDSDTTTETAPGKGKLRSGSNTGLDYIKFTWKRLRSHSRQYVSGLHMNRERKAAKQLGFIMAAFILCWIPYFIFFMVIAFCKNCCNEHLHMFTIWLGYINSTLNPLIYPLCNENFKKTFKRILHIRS
T4 sequence (P08173 whole entry): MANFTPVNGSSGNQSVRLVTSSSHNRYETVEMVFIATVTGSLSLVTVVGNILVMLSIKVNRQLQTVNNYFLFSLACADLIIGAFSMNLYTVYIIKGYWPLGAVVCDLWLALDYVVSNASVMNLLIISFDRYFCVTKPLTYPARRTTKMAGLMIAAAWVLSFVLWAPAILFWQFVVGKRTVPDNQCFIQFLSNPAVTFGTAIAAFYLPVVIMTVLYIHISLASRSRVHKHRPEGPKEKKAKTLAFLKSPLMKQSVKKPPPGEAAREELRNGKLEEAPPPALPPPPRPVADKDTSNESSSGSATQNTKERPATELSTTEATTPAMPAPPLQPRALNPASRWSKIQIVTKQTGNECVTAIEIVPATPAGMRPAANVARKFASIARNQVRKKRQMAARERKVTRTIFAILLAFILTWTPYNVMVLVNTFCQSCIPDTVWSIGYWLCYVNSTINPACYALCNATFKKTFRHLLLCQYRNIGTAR
T14 sequence (P80457 2-1332): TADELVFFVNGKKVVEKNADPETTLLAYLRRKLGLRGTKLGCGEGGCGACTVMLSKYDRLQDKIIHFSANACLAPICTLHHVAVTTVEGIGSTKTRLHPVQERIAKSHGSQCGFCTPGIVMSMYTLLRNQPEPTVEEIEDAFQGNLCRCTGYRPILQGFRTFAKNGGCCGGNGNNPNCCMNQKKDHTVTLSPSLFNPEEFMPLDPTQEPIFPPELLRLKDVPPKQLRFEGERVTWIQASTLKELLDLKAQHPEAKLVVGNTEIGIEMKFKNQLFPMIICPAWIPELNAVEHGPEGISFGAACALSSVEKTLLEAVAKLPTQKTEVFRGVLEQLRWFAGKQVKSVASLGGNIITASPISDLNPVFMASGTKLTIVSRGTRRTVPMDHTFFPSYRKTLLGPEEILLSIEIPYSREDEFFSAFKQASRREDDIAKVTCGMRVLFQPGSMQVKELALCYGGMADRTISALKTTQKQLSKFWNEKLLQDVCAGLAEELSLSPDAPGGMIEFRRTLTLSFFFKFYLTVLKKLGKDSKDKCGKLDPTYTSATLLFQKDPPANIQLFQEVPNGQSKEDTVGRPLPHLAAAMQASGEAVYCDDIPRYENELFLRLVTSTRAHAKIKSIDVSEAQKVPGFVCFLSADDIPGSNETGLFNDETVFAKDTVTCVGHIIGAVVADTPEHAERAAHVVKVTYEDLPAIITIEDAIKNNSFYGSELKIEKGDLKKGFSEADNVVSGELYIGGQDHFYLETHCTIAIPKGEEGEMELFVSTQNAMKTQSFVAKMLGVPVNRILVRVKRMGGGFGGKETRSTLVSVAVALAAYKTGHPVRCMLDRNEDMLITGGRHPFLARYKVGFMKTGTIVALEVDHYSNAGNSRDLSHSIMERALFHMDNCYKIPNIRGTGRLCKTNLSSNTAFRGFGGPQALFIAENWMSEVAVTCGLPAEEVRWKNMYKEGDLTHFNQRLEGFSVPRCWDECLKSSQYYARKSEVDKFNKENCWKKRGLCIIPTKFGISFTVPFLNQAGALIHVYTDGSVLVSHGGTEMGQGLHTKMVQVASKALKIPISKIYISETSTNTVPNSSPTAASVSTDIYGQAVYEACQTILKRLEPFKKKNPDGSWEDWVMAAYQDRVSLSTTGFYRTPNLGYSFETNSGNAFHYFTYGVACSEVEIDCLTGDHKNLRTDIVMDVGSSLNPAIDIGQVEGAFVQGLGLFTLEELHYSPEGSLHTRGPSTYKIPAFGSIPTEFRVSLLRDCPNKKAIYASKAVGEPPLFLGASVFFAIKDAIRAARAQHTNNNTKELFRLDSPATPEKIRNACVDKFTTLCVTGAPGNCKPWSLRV
T11 sequence (P08588 whole entry): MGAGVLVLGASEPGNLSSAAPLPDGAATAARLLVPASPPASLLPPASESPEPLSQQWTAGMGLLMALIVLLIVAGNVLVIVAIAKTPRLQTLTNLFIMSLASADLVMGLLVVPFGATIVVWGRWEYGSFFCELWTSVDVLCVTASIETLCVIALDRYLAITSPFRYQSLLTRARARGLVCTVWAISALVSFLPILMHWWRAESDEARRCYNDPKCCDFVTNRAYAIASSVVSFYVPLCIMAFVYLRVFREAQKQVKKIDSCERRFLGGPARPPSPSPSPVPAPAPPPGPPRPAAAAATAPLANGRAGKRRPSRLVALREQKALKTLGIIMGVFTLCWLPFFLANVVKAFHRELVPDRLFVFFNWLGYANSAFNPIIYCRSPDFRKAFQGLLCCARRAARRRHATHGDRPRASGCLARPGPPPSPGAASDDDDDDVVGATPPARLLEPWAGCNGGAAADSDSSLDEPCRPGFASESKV
T15 sequence (P34975 whole entry): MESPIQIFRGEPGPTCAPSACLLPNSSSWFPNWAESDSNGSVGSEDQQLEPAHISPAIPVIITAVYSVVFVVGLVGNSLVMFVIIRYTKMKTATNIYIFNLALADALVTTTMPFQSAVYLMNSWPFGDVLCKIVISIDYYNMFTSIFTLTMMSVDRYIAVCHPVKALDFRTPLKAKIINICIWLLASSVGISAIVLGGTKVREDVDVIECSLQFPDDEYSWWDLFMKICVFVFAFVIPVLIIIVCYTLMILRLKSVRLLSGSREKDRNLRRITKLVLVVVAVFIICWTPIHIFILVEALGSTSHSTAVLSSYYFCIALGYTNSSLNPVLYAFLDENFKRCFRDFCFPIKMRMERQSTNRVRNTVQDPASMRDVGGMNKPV
T7 sequence (P31645 whole entry): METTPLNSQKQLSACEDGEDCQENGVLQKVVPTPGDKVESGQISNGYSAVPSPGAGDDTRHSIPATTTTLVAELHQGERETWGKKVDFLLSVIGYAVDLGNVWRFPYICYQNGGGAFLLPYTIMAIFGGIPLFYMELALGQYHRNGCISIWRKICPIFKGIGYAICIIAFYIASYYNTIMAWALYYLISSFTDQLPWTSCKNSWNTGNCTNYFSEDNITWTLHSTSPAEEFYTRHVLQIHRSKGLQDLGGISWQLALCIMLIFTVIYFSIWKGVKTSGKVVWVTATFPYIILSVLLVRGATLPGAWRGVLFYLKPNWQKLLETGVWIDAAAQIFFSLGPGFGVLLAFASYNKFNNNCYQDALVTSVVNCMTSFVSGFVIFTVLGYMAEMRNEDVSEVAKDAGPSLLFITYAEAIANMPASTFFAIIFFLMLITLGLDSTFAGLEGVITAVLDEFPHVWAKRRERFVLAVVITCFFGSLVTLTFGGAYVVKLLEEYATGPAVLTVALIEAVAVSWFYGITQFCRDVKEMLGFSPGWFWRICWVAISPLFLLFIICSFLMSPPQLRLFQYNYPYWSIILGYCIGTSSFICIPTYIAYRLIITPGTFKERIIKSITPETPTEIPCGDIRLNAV
T3 sequence (Q92633 whole entry): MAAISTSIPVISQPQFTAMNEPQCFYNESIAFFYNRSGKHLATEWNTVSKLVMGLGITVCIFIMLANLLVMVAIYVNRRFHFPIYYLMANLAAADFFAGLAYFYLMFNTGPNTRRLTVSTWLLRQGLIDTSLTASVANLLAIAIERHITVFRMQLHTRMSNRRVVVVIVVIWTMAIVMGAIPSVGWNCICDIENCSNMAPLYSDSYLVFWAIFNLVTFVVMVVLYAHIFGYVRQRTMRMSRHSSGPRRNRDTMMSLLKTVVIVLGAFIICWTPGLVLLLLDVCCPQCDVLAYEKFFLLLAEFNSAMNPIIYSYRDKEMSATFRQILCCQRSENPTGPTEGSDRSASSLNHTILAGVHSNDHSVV
T13 sequence (P31391 whole entry): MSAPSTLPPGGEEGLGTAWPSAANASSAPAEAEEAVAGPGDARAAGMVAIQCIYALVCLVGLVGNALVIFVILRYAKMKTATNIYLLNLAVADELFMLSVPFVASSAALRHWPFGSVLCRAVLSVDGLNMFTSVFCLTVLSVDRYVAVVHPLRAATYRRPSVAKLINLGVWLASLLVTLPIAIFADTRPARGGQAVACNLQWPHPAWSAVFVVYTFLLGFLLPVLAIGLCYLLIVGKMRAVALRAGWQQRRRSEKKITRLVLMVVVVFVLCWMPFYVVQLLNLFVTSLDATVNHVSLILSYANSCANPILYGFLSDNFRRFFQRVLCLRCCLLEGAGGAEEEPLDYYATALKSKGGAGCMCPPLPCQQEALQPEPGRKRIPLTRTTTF

SMILES: O=C(OCc1ccc(OC(F)(F)F)cc1)N1C[C@@H]2CN(C(=O)c3ccc4[nH]nnc4c3)C[C@H]2C1 [Compound 13, (3aS,6aS)-5-(1H-Benzotriazole-5-carbonyl)-hexahydro-pyrrolo[3,4-c]pyrrole-2-carboxylic acid 4-trifluoromethoxy-benzyl ester]
- Histamine H2 receptor (h) [% inhib] [1]: 12 % inhib
- Histamine H3 receptor (h) [% inhib] [2]: -10 % inhib
- LPA1 receptor (h) [% inhib] [3]: -19 % inhib
- Muscarininc receptor M4 (h) [% inhib] [4]: -17 % inhib
- Histamine H1 receptor (h) [% inhib] [5]: 5 % inhib
- S1P1 (h), antago. mode [% inhib] [6]: 8 % inhib
- Serotonin transporter (h) [% inhib] [7]: 28 % inhib
- ACE (h) [% inhib] [8]: -25 % inhib
- LPA2 receptor (h), antago. mode [% inhib] [9]: 49 % inhib
- CDK2 (h) [% inhib] [10]: 0 % inhib
- Beta1-adrenoreceptor (h) [% inhib] [11]: 2 % inhib
- S1P3 (h), agonist mode [% pos ctrl] [12]: 8 % pos ctrl
- S1P3 (h), antago. mode [% inhib] [13]: 47 % inhib
- logD at 12 h [14]: 3.2
- Somatostatin receptor 4 (h) [% inhib] [15]: 12 % inhib
- Xanthine oxidase (b) [% inhib] [16]: 7 % inhib
- kappa opioid receptor (r) [% inhib] [17]: -1 % inhib
- GSH adducts [18]: Neg
- LPA3 receptor (h), antago. mode [% inhib] [19]: 56 % inhib
- Neprilysin (neutral endopeptidase) (h) [% inhib] [20]: -29 % inhib
